In patent US5489613A, “Carbacyclin derivatives, process for their preparation and compositions containing them” (priority 1983, dated 1996):
≈ marks a conversion by molar mass, not a printed value.

Legend:
Type in all cases: cell-based
[1] = system: platelet aggregation (platelet-rich plasma); test: Inhibition of platelet aggregation (ADP-induced), Born's turbidimetric method, rabbit blood; settings: Oryctolagus cuniculus, 2 min, read-out: Concentration (ng/ml) for 50% inhibition, rabbit blood
Procedure: (§1) Platelet aggregation was determined by the following means: 0.05 ml of a test liquid (containing, in various concentrations, the compound whose inhibitory effect was to be tested) was added to 1 ml of this platelet-rich plasma; two minutes after the addition, 0.2 ml of a liquid containing adenosine diphosphate at a concentration of 5 μM was added; the increase in light transmission at 600 nm was determined by means of a platelet aggregometer manufactured by Bryston Co. Limited.

[2] = system: platelet aggregation (platelet-rich plasma); test: Inhibition of platelet aggregation (ADP-induced), Born's turbidimetric method, human blood; settings: 2 min, read-out: Concentration (ng/ml) for 50% inhibition, human blood
Procedure: as §1

[3] = system: blood platelets; test: Inhibition of aggregation of blood platelets (thrombocyte agglutination), stated in words
[4] = rabbit platelet-rich plasma, adenosine diphosphate 5 μM, 2 min after addition of test liquid, 600 nm
[5] = human platelet-rich plasma, adenosine diphosphate 5 μM, 2 min after addition of test liquid, 600 nm

| Structure (SMILES) | IC50 ([1]; Platelet) [ng/mL] | IC50 ([2]; Homo sapiens, Platelet) [ng/mL] | IC50 [1, 4] [ng/mL] | IC50 [2, 5] [ng/mL] | ability to inhibit aggregation of blood platelets [3] |
| --- | --- | --- | --- | --- | --- |
| CCCCC[C@H](O)/C=C/[C@@H]1[C@H]2C/C(=C/CCCC(=O)O)C[C@H]2C[C@H]1O [Compound B, carbacyclin] | 36 (≈ 103 nM) | 13.3 (≈ 37.9 nM) |  |  |  |
| CCCCC[C@H](O)/C=C/[C@@H]1[C@H]2CC(CCCCC(=O)O)=C[C@H]2C[C@H]1O [Compound C, reference compound] |  |  | 5.9 (≈ 16.8 nM) | 3.6 (≈ 10.3 nM) | has the ability to inhibit aggregation blood platelets |
| O=C(O)CCCCC1=C[C@H]2C[C@@H](O)[C@H](/C=C/[C@@H](O)CC3CCCC3)[C@H]2C1 [Compound 100, 3-(4-Carboxybutyl)-6β-(3α-hydroxy-4-cyclopentylbut-1-enyl)-7α-hydroxy-cis-bicyclo[3,3,0]oct-2-ene] |  |  |  | 1.1 (≈ 3.03 nM) |  |
| O=C(O)CCCCC1=C[C@H]2C[C@@H](O)[C@H](/C=C/[C@@H](O)C3CCCCC3)[C@H]2C1 [Compound 98, 3-(4-Carboxybutyl)-6β-(3α-hydroxy-3-cyclohexylprop-1-enyl)-7α-hydroxy-cis-bicyclo[3,3,0]oct-2-ene] |  |  | 3.3 (≈ 9.1 nM) | 0.9 (≈ 2.48 nM) |  |
| CC#CCC(C)[C@H](O)/C=C/[C@@H]1[C@H]2CC(CCCCC(=O)O)=C[C@H]2C[C@H]1O (stereo partly drawn) [Compound 85, 3-(4-Carboxybutyl)-6β-(3α-hydroxy-4-methyloct-1-en-6-ynyl)-7α-hydroxy-cis-bicyclo[3,3,0]oct-2-ene] |  |  | 3.6 (≈ 9.99 nM) | 0.4 (≈ 1.11 nM) |  |
| CCCCC[C@H](O)/C=C/[C@H]1[C@H](O)CC(=O)[C@@H]1CCCCCCC(=O)O [Compound A, PGE1, reference compound] |  |  | 36 (≈ 102 nM) | 9.3 (≈ 26.2 nM) |  |
| O=C(O)CCCCC1=C[C@H]2C[C@@H](O)[C@H](/C=C/[C@@H](O)C3CCCC3)[C@H]2C1 [Compound 90, 3-(4-Carboxybutyl)-6β-(3α-hydroxy-3-cyclopentylprop-1-enyl)-7α-hydroxy-cis-bicyclo[3,3,0]oct-2-ene] |  |  | 3.7 (≈ 10.6 nM) | 0.5 (≈ 1.43 nM) |  |
| C=CCCCC(C)[C@H](O)/C=C/[C@@H]1[C@H]2CC(CCCCC(=O)O)=C[C@H]2C[C@H]1O (stereo partly drawn) [Compound 60, 3-(4-Carboxybutyl)-6β-(3α-hydroxy-4-methylnona-1,8-dienyl)-7α-hydroxy-cis-bicyclo[3,3,0]oct-2-ene] |  |  | 1.1 (≈ 2.92 nM) | 1.8 (≈ 4.78 nM) |  |
